Laboratory results reported in patent US6083956A, “Optically pure androgen mediator” (Pfizer Inc., priority 1999, dated 2000).
Read-outs that look alike come from different tables or passages of the source.

Biological target: T1, recombinant human androgen receptor (hAR) (Homo sapiens, UniProt P10275)
T1 construct: made in house; host or cells: Sf9 insect cells (baculovirus)
Test: Human Androgen Receptor Binding Analysis (competitive binding vs 3H-dihydrotestosterone)
Conditions: 1 nM 3H-DHT tracer, hydroxylapatite, one hour at 4° C

[1] = hAR Binding IC50, baculovirus/Sf9 generated hAR extract

T1 sequence (P10275 whole entry): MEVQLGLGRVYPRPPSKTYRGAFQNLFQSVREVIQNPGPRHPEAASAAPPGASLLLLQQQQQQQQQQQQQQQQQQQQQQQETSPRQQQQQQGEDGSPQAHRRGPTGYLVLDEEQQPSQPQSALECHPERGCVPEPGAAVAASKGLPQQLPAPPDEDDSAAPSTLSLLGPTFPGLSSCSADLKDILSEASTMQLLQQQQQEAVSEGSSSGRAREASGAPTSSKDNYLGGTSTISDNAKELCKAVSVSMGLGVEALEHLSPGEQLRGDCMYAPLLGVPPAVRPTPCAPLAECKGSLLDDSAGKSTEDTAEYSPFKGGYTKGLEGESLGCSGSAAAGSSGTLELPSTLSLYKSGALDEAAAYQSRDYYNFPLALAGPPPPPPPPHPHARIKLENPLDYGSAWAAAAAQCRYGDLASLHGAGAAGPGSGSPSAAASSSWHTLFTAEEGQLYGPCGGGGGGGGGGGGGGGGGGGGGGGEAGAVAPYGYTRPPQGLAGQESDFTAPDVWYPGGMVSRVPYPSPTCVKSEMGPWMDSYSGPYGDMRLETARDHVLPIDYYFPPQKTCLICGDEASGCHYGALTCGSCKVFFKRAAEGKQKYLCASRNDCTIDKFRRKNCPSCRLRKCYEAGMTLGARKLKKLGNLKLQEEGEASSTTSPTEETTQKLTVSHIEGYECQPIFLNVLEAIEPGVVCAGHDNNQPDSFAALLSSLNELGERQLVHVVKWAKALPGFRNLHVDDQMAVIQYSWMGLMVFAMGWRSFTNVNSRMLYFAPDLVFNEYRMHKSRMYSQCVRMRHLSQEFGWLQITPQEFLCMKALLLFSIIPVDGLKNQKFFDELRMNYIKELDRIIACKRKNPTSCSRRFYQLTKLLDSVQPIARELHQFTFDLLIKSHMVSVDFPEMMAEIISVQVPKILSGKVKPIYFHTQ
Description: The following is a brief description of the assay that determines the affinity of a compound for the recombinant human androgen receptor (hAR). Competitive binding analysis is performed on baculovirus/Sf9 generated hAR extracts in the presence or absence of differing concentrations of drug and a fixed concentration of ^3 H-dihydrotestosterone (^3 H-DHT) as tracer. […] Briefly, progressively decreasing concentrations of compounds are incubated in the presence of hAR extract (Chang et al. P.N.A.S. Vol. 89, pp. 5546-5950, 1992), hydroxylapatite and 1 nM ^3 H-DHT for one hour at 4° C. Subsequently, the binding reactions are washed three times to completely remove excess unbound ^3 H-DHT. hAR bound.
^3 H-DHT levels are determined in the presence of compounds (=competitive binding) and compared to levels bound when no competitor is present (=maximum binding). Compound binding affinity to the hAR is expressed as the concentration of compound at which one half of the maximum binding is inhibited.

SMILES | IC50 [1] | IC50 (baculovirus/Sf9 generated hAR extract, read-out: hAR Binding IC50)
CCC1CCNc2cc3oc(=O)cc(C(F)(F)F)c3cc21 (single isomer, unassigned; (+)) [(+) Enantiomer, (+)-5-Ethyl-4-trifluoromethyl-5,6,7,8-tetrahydro-1-oxa-8-aza-anthracen-2-one] | 112 nM | –
CCC1CCNc2cc3oc(=O)cc(C(F)(F)F)c3cc21 (racemic) [Racemate (±), Racemic 5-ethyl-4-trifluoromethyl-5,6,7,8-tetrahydro-1-oxa-8-aza-anthracen-2-one, reference compound] | – | 35 nM
CCC1CCNc2cc3oc(=O)cc(C(F)(F)F)c3cc21 (single isomer, unassigned; (-)) [(-) Enantiomer, (-)-5-ethyl-4-trifluoromethyl-5,6,7,8-tetrahydro-1-oxa-8-aza-anthracen-2-one] | 5 nM | –
